Assay results published in patent US20240173419A1, “CDK2 DEGRADERS AND USES THEREOF” (Kymera Therapeutics, Inc., priority 2022, published 2024).

Target: T1, CDK2 (Homo sapiens, UniProt P24941)
T1 construct: endogenous in cells; host or cells: MKN1 cells
Experiment: CDK2 degradation in MKN1 cells (AlphaLISA)
Format: cell-based
Set-up: key to CDK2 degradation 14 h: Mean external-Abs DC50 (nM): A (<100 nM); B (≥100-500 nM); C (>500-1000 nM); D (>1000 nM); E (not achieved)
Conditions: for DC50: read-out: CDK2 degradation 14 h: Mean external-Abs DC50
Method in brief: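 DC50 from four-parameter logistic fit of AlphaLISA CDK2 signal, corrected for no-cell wells. Lysates came from MKN1 cells, 2e4 per well, exposed 14 h at 37° C to compound at 0.001 nM-10 μM (1:5 series, 11 doses) in 0.1% DMSO.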

Row | CDK2 degradation 14 h: Average Dmax % (14 h incubation) | DC50 (14 h incubation) | CDK2 degradation 14 h: Mean external-Abs DC50 (nM) (14 h incubation) | Dmax (MKN-1, 14 h incubation) | SMILES
1 | A (A (>75% o)) | < 100 nM |  |  | Cc1cc(S(=O)(=O)NCCOCCOCCCc2ccc3c(c2)n(C)c(=O)n3C2CCC(=O)NC2=O)ccc1Nc1ncc2ccc(=O)n(C3CCCC3)c2n1 (centres unmarked) [I-475]
2 | A (A (>75% o)) | < 100 nM |  |  | Cc1cc(S(=O)(=O)N2CCC(N3CCC(CN(C)c4cccc5c4n(C)c(=O)n5C4CCC(=O)NC4=O)CC3)CC2)ccc1Nc1ncc2cc(C(F)F)c(=O)n(C3CCCC34CC4)c2n1 (centres unmarked) [I-383]
3 | C (C (>25% -50%)) |  | E |  | Cc1cc(S(=O)(=O)N2CCC(CN(C)C3CN(c4cccc5c4n(C)c(=O)n5C4CCC(=O)NC4=O)C3)CC2)ccc1Nc1ncc2cc(Cl)c(=O)n(C3CCCC3)c2n1 (centres unmarked) [I-422]
4 | A (A (>75% o)) | < 100 nM |  |  | Cc1cc(S(=O)(=O)N2CCC(CN(C)C3CCN(c4cccc5c4n(C)c(=O)n5C4CCC(=O)NC4=O)CC3)CC2)ccc1Nc1ncc2cc(F)c(=O)n(C3CCCC3)c2n1 (centres unmarked) [I-342]
5 | B (B (>50% -75%)) | 100 to 500 nM |  |  | Cc1cc(S(=O)(=O)N2CCC3(CCN(Cc4cccc5c4n(C)c(=O)n5C4CCC(=O)NC4=O)CC3)CC2)ccc1Nc1ncc2ccc(=O)n(C3CCCC3)c2n1 (centres unmarked) [I-458]
6 | A (A (>75% o)) | < 100 nM |  |  | Cc1cc(S(=O)(=O)N[C@H]2CC[C@H](OCCN3CCC(c4ccc5c(c4)n(C)c(=O)n5C4CCC(=O)NC4=O)CC3)CC2)ccc1Nc1ncc2cc(Cl)c(=O)n(C3CCCC3)c2n1 (some centres unmarked) [I-419]
7 | A (A (>75% o)) | < 100 nM |  |  | Cc1cc(S(=O)(=O)C2CC3(CCN(CC4CCN(c5ccc6c(oc(=O)n6C6CCC(=O)NC6=O)c5F)CC4)CC3)C2)ccc1Nc1ncc2cc(Cl)c(=O)n(C3CCCC3)c2n1 (centres unmarked) [I-302]
8 | A (A (>75% o)) | 100 to 500 nM |  |  | Cc1cc(S(=O)(=O)NC2CC(N3CCC4(CC3)CN(Cc3cccc5c3n(C)c(=O)n5C3CCC(=O)NC3=O)C4)C2)ccc1Nc1ncc(C(F)(F)F)c(N2CCCC(C)(O)C2)n1 (centres unmarked) [I-697]
9 | A (A (>75% o)) | < 100 nM |  |  | Cc1cc(S(=O)(=O)C2CC3(CCN(CC4CCN(c5ccc(OC6CCC(=O)NC6=O)cc5)CC4)CC3)C2)ccc1Nc1ncc2cc(Cl)c(=O)n(C3CCCC3)c2n1 (centres unmarked) [I-73]
10 | A (A (>75% o)) | < 100 nM |  |  | Cc1cc(S(=O)(=O)NCCOCCOCCOCCCc2ccc3c(c2)n(C)c(=O)n3C2CCC(=O)NC2=O)ccc1Nc1ncc2ccc(=O)n(C3CCCC3)c2n1 (centres unmarked) [I-474]
11 | A (A (>75% o)) | < 100 nM |  |  | Cc1cc(S(=O)(=O)NCCOC2CCC(CN3CCC(c4ccc5c(c4)n(C)c(=O)n5C4CCC(=O)NC4=O)CC3)CC2)ccc1Nc1ncc2ccc(=O)n(C3CCCC3)c2n1 (centres unmarked) [I-468]
12 | A (A (>75% o)) | < 100 nM |  |  | Cc1cc(S(=O)(=O)C2CC3(CCN(CCC4CCN(c5cccc6c5n(C)c(=O)n6C5CCC(=O)NC5=O)CC4)CC3)C2)ccc1Nc1ncc2cc(Cl)c(=O)n(C3CCCC3)c2n1 (centres unmarked) [I-40]
13 | A (A (>75% o)) | < 100 nM |  |  | Cc1cc(S(=O)(=O)C2CCN(CCC3CCN(c4cccc5c4n(C)c(=O)n5C4CCC(=O)NC4=O)CC3)CC2)ccc1Nc1ncc2cc(Cl)c(=O)n(C(C)C)c2n1 (centres unmarked) [I-11]
14 | A (A (>75% o)) | < 100 nM |  |  | Cc1cc(S(=O)(=O)NC2CC(N3CCN(CC4CCN(c5ccc6c(c5F)n(C)c(=O)n6C5CCC(=O)NC5=O)CC4)CC3)C2)ccc1Nc1ncc2cc(Cl)c(=O)n(C3CCCC3)c2n1 (centres unmarked) [I-832]
15 | A (A (>75% o)) | 100 to 500 nM |  |  | Cc1cc(S(=O)(=O)N2CCC(CN(C)C3CCN(c4cccc5c4n(C)c(=O)n5C4CCC(=O)NC4=O)CC3)CC2)ccc1Nc1ncc(C(F)(F)F)c(C2CCCCC2)n1 (centres unmarked) [I-1153]

More lines, now with the values behind:

Row | SMILES | CDK2 degradation 14 h: Average Dmax % (14 h incubation) | DC50 (14 h incubation) | CDK2 degradation 14 h: Mean external-Abs DC50 (nM) (14 h incubation) | Dmax (MKN-1, 14 h incubation)
16 | Cc1cc(S(=O)(=O)NC(C)COC2CCC(CN3CCN(c4ccc5c(c4F)n(C)c(=O)n5C4CCC(=O)NC4=O)CC3)CC2)ccc1Nc1ncc(C(F)(F)F)c(N2CCC(C(C)(C)O)C2)n1 (centres unmarked) [I-858] | A (A (>75% o)) | < 100 nM |  | 
17 | Cc1cc(S(=O)(=O)NC2CCC(CCN3CCN(c4ccc(C5CCC(=O)NC5=O)cc4F)CC3)CC2)ccc1Nc1ncc2c(n1)N(C1CCCC(O)C1)C(=O)C21CC1 (centres unmarked) [I-939] | B (B (>50% -75%)) | < 100 nM |  | 
18 | Cc1cc(S(=O)(=O)NC2CC(N3CCN(CC4CCN(c5ccc(C6CCC(=O)NC6=O)cc5)CC4)CC3)C2)ccc1Nc1ncc(C(F)(F)F)c(N2CCCC(C)(O)C2)n1 (centres unmarked) [I-719] | A (A (>75% o)) | < 100 nM |  | 
19 | Cc1cc(S(=O)(=O)N2CCC(CN(C)C3CCN(c4cccc5c4n(C)c(=O)n5C4CCC(=O)NC4=O)CC3)CC2)ccc1Nc1nccc(-c2cnc(C)n2C(C)C)n1 (centres unmarked) [I-1152] | A (A (>75% o)) | < 100 nM |  | 
20 | Cc1cc(S(=O)(=O)NC(C)COC2CCC(CN3CCN(c4ccc5c(c4F)n(C)c(=O)n5C4CCC(=O)NC4=O)CC3)CC2)ccc1Nc1ncc2cc(Cl)c(=O)n(C(C)C(C)(C)O)c2n1 (centres unmarked) [I-843] | D (D (<25%)) | > 1000 nM |  | 
21 | Cc1cc(S(=O)(=O)C2CCN(CCN3CCN(c4cccc5c4n(C)c(=O)n5C4CCC(=O)NC4=O)CC3)CC2)ccc1Nc1ncc(C(F)(F)F)c(-c2cnn(C)c2)n1 (centres unmarked) [I-61] | A (A (>75% o)) | < 100 nM |  | 
22 | CC1(O)CCCN(c2nc(Nc3ccc(S(=O)(=O)NC4CCC(CN5CCN(c6ccc(C7CCC(=O)NC7=O)c(Cl)c6)CC5)CC4)cc3F)ncc2C(F)(F)F)C1 (centres unmarked) [I-1107] | A (A (>75% o)) | < 100 nM |  | 
23 | CC1(O)CCCN(c2nc(Nc3ccc(S(=O)(=O)NC4CCC(CN5CCN(c6ccc(C7CCC(=O)NC7=O)cc6F)CC5)CC4)cc3C(F)(F)F)ncc2C(F)(F)F)C1 (centres unmarked) [I-1110] | B (B (>50% -75%)) | 100 to 500 nM |  | 
24 | Cc1cc(S(=O)(=O)NC2CCC(N3CCN(c4ccc(C5CCC(=O)NC5=O)c(Cl)c4)CC3)CC2)ccc1Nc1ncc(C(F)(F)F)c(N2CCCC(C)(O)C2)n1 (centres unmarked) [I-930] | A (A (>75% o)) | < 100 nM |  | 
25 | Cc1cc(S(=O)(=O)C2CC3(CCN(CCOC4CN(c5cccc6c5n(C)c(=O)n6C5CCC(=O)NC5=O)C4)CC3)C2)ccc1Nc1ncc(C(F)(F)F)c(N2CCCC(C)(O)C2)n1 (centres unmarked) [I-854] | B (B (>50% -75%)) | 100 to 500 nM |  | 
26 | Cc1cc(S(=O)(=O)NC2CCC(CN3CCN(c4ccc([C@H]5CCC(=O)NC5=O)c(Cl)c4)CC3)CC2)ccc1Nc1ncc(C(F)(F)F)c(N2CCC[C@](C)(O)C2)n1 (single isomer, unassigned) [I-817] |  | 100 to 500 nM |  | > 75%
27 | Cc1cc(S(=O)(=O)NC2CC(N3CCN(CC4CCN(c5ccc6c(c5F)n(C)c(=O)n6C5CCC(=O)NC5=O)CC4)CC3)C2)ccc1Nc1ncc(C(F)(F)F)c(N2CCCC(C)(O)C2)n1 (centres unmarked) [I-830] | A (A (>75% o)) | < 100 nM |  | 
28 | [2H]C(C)(COC1CCC(CN2CCN(c3ccc4c(c3F)n(C)c(=O)n4C3CCC(=O)NC3=O)CC2)CC1)NS(=O)(=O)c1ccc(Nc2ncc(C(F)(F)F)c(C3CCC(C)(O)CC3)n2)c(C)c1 (racemic) [I-859] | A (A (>75% o)) |  |  | 
29 | C[C@]1(O)CCC[C@H]1n1c(=O)c(C(F)F)cc2cnc(NC3CCN(C(=O)COCCOCCNc4cccc5c4C(=O)N(C4CCC(=O)NC4=O)C5=O)CC3)nc21 (some centres unmarked) [I-491] | D (D (<25%)) | > 1000 nM |  | 
30 | Cc1cc(S(=O)(=O)NCCOCC2CCN(c3ccc(N4CCC(=O)NC4=O)cc3)CC2)ccc1Nc1ncc2cc(Cl)c(=O)n(C3CCCC3)c2n1 [I-409] | C (C (>25% -50%)) | > 1000 nM |  | 
31 | Cc1cc(S(=O)(=O)NCCCC2CCN(c3ccc(N4CCC(=O)NC4=O)cc3)CC2)ccc1Nc1ncc2cc(Cl)c(=O)n(C3CCCC3)c2n1 [I-412] | C (C (>25% -50%)) | > 1000 nM |  | 
32 | Cc1cc(S(=O)(=O)C2CC3(CCN(CC4CCN(c5ccc(NC6CCC(=O)NC6=O)c(C)c5)CC4)CC3)C2)ccc1Nc1ncc2cc(Cl)c(=O)n(C3CCCC3)c2n1 (centres unmarked) [I-76] | B (B (>50% -75%)) | 500 to 1000 nM |  | 
33 | Cc1cc(S(=O)(=O)NC2CCC(CN3CCN(c4ccc(C5CCC(=O)NC5=O)c(C)c4F)CC3)CC2)ccc1Nc1ncc(C(F)(F)F)c(N2CCCC(C)(O)C2)n1 (centres unmarked) [I-812] | A (A (>75% o)) | < 100 nM |  | 
34 | Cc1cc(S(=O)(=O)NC2CCC(F)(CN3CCN(c4ccc(C5CCC(=O)NC5=O)cc4F)CC3)CC2)ccc1Nc1ncc(C(F)(F)F)c(N2CCC[C@](C)(O)C2)n1 (some centres unmarked) [I-815] | A (A (>75% o)) | < 100 nM |  | 
35 | Cc1cc(S(=O)(=O)NC2CCC(CN3CCN(c4ccc(C5CCC(=O)NC5=O)cc4Cl)CC3)CC2)ccc1Nc1ncc(C(F)(F)F)c(N2CCCC(C)(O)C2)n1 (centres unmarked) [I-807] | A (A (>75% o)) | < 100 nM |  | 
36 | Cc1cc(S(=O)(=O)NC2CCC(CN3CCN(c4ncc(C5CCC(=O)NC5=O)cc4F)CC3)CC2)ccc1Nc1ncc(C(F)(F)F)c(N2CCCC(C)(O)C2)n1 (centres unmarked) [I-1142] | A (A (>75% o)) | < 100 nM |  | 
37 | CC1(O)CCC(c2nc(Nc3ccc(S(=O)(=O)NC4CCC(CN5CCN(c6ccc(C7CCC(=O)NC7=O)c(F)c6)CC5)CC4)cc3F)ncc2C(F)(F)F)CC1 (centres unmarked) [I-1074] | A (A (>75% o)) | 100 to 500 nM |  | 
38 | Cn1c(=O)n(C2CCC(=O)NC2=O)c2ccc(N3CCC(CN4CCC5(CC4)CC(S(=O)(=O)c4ccc(Nc6ncc(C(F)(F)F)c(N7CCCC(C)(O)C7)n6)c(Cl)c4)C5)CC3)c(F)c21 (centres unmarked) [I-855] | B (B (>50% -75%)) | < 100 nM |  | 
39 | Cc1cc(S(=O)(=O)N2CCC(CN(C)C3CCN(c4cccc5c(N6CCC(=O)NC6=O)cncc45)CC3)CC2)ccc1Nc1ncc2cc(Cl)c(=O)n(C3CCCC3)c2n1 [I-416] | A (A (>75% o)) | < 100 nM |  | 
